According to patent US20220296866A1, “METHODS, DEVICES AND COMPOSITIONS FOR LOCAL DELIVERY” (POLY-MED, INC., priority 2019, published 2022):

Columns and labels:
[1] = Stability of Mitomycin C in PDLG film (colour change); assay type: physicochemical; settings: evidenced by a change in color from purple to tan
Method: SVG12 (Poly-Med, Inc.) and PDLG (Purasorb PDLG 7507, Corbion) were separately dissolved in chloroform, each at 15% concentration (wt/vol %). Solutions were divided to create different drug-loading solutions according to the associated table. In short, lidocaine (Sigma Aldrich) was added to a solution of SVG12 at a concentration of 134 mg drug per 1 gram of SVG12. Dexamethasone was added to a separate solution of PDLG at a concentration of 29 mg drug per 1 gram of PDLG. Mitomycin C was added to a separate solution of PDLG at a concentration of 6.8 mg drug per 1 gram of PDLG. All solutions were held at room temperature on a roller until completely dissolved. The solutions were cast into thin films using a 25-mil film casting blade and allowed to dry.
Drug-loaded films were cut into rectangles and placed on SVG12-only films. In the case of the dexamethasone- and lidocaine-loaded sample, the cut films were stacked one on top of the other. In the case of mytomycin C-loaded films, 4 drug-loaded films were stacked one on top of the other to increase total delivery payload. On top of the drug-eluting film, a separate SVG12-only film was added which was larger in size. Degradable medical devices and/or compositions were clamped between rubber films between glass plates, clamped to apply pressure, and heated at 50° C. for 3 hours to create a seal between the encapsulation films. […]

[2] = In vitro drug release evaluation of Mitomycin C-eluting devices in artificial urine; assay type: physicochemical
Method: Devices prepared from earlier examples were characterized for drug release profile in artificial urine to predict in vivo behavior in a human bladder. First, artificial urine was prepared according to ASTM F1828, with a modified buffer. Drug-containing samples were placed in individual 20 mL glass vials and 15 mL artificial urine added to cover the sample. This volume of artificial urine was sufficiently above the Mitomycin C solubility limit for each sample so as not to interfere with release analysis. Filled glass vials were placed in a 37° C. incubator on a 1 Hz orbital bed. As predetermined time points, a total changeover of artificial urine was performed, with the exchanged urine analyzed by HPLC to determine total release of Mitomycin C per time period.
HPLC analysis was performed using a Waters ACQUITY ArcHPLC with C18 column using an isocratic method with 71:29 water:methanol mobile phase. Peaks were compared against a standard curve to determine concentration in the sample, and calculated to total percentage release based on fluid volume and loading of Mitomycin C in the sample. […] A secondary release of drug is anticipated as the OC9 and SVG12 materials experience degradation.

CO[C@@]12[C@H](COC(N)=O)C3=C(C(=O)C(C)=C(N)C3=O)N1C[C@@H]1N[C@@H]12 [Mitomycin C]
stability of Mitomycin C in polymer [1]: poor stability
Mitomycin C release compared with the free gel ([2]; OC9/PEG 400 gel placed in the core of the stent, 37° C.): Further attenuation
Mitomycin C release profile after the initial release ([2]; gel containing 2 parts OC9 and 1 part PEG 400, 37° C., after about 3 days): extended release plateau
total percentage release of Mitomycin C ([2]; gel containing 2 parts OC9 and 1 part PEG 400, 37° C., over about 3 days): 13%
